In publication PMC12005470, “Effects of Cholesterol on the Breast Cancer Resistance Protein: Studies through the Synthesis and Biological Evaluation of Chemical Tools” (Chemmedchem, 2025):

What was measured:
[1] = biological target: T1, breast cancer resistance protein (BCRP/ABCG2) (Homo sapiens, UniProt Q9UNQ0); assay: Ko143-sensitive accumulation in HEK293-ABCG2 cells, confocal microscopy; efflux by flow cytometry; format: cell-based
T1 sequence (Q9UNQ0 1-655): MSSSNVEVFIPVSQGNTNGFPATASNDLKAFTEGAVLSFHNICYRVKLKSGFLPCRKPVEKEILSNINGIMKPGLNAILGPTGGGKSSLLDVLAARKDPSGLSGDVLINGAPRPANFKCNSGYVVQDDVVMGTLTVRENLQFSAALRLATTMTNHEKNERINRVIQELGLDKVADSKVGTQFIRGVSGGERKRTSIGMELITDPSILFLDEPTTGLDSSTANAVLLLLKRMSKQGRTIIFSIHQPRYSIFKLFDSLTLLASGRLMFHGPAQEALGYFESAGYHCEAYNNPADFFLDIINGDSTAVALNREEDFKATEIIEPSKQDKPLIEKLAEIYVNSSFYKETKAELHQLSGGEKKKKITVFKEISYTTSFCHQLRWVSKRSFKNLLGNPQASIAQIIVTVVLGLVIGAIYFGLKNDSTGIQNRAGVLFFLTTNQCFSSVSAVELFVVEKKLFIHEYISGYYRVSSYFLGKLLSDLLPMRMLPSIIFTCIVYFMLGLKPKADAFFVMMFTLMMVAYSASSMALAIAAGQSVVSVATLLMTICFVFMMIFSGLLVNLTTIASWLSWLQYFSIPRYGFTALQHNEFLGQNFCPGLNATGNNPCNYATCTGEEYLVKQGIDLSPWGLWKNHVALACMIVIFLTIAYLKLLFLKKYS

[2] = biological target: T1, breast cancer resistance protein (BCRP/ABCG2); assay: cell-based

IC50 [2] [µM] | Structure (SMILES) | Ko143-sensitive accumulation in HEK293-ABCG2 cells, confocal microscopy; efflux [1]
– | C=Cc1c(C)c2cc3nc(c4c5[nH]c(cc6nc(cc1[nH]2)C(C)=C6CC)c(C)c5C(=O)[C@@H]4C(=O)OC)[C@@H](CCC(=O)O)[C@@H]3C [compound 2, pheophorbide a] | ABCG2 inhibition by Ko143 caused an intracellular accumulation of hoechst and pheophorbide a (Figure S1)
2.21 ± 0.5 | O=C(/C=C/c1ccccc1)c1ccccc1 [compound 5, Chalcone (5)] | –
